Type in all cases: cell-based
Data set [1] is described as follows: Cytotoxicity assay (CellTiter-Glo cell viability, 72 hours). To be noted: African green monkey. Summed up:
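Vero cells, 5000/well, grown overnight at 37° C, 5% CO2 in DMEM with 10% FBS, then exposed to serial compound dilutions or DMSO for 72 hours. Viability read by CellTiter-Glo luminescence. IC50 from duplicate wells, reported as range over two independent experiments.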
On the technique in general: ATP-based viability assays read luminescence as a measure of living cells.

For data set [2], the system named is Bacillus subtilis, ATCC 23857. In words: Minimal inhibitory concentration assay (microbroth dilution). Summed up:
(§1)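 CLSI broth microdilution: two-fold compound dilutions from 200 μM final, ~10^5 cfu/mL inoculum, aerobic overnight incubation at 37 °C. MIC read visually as lowest concentration preventing growth; S. aureus USA 300 compared with its ClpP-inactivated counterpart to check ClpP dependence.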
For orientation: Broth dilution looks for growth in wells or tubes with falling amounts of substance.

Data set [3] has as its system Staphylococcus aureus, ATCC 29213. Described as above. To be noted: ATCC29213, read-out: Minimal Inhibitory Concentrations S. aureus ATCC 29213. Summed up:
as §1

Data set [4] has as its system Streptococcus pyogenes, ATCC 700294. Described as above. Summed up: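 CLSI broth microdilution: two-fold serial compound dilutions in appropriate broth, inoculated and incubated aerobically overnight at 37° C. MIC read visually as lowest concentration preventing bacterial growth.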
Data set [5] deals with Staphylococcus aureus, NRS70. The data set is described as above. Summed up:
as §1

Where [6] appears, read: Vero cells, 72 hours, growth inhibition, read-out: Cytotoxicity IC50.
The mark [7] stands for this setting: Bacillus subtilis, ATCC23857, read-out: Minimal Inhibitory Concentrations B. subtilis ATCC 23857.
The mark [8] stands for this setting: Streptococcus pyogenes, ATCC700294, read-out: Minimal Inhibitory Concentrations S. pyogenes ATCC 700294.
[9] abbreviates: Staphylococcus aureus, NRS70; read-out: Minimal Inhibitory Concentrations S. aureus NRS70.
Setting [10] is: Staphylococcus aureus, NRS70, read-out: Minimal Inhibitory Concentrations S. aureus NRS70.

The structures appear in SMILES notation. ≈ marks a conversion by molar mass, not a printed value. Like-named read-outs stand apart in the source and are kept apart here. *1 amine or outer side, *2 acyl side, *3 side chain or, on linkers, in order; H or OH if unused. Where a SMILES comes first, the peptide text is derived from it. Bridges are numbered along the chain shown (N, C = ends). [ ]: non-standard residue; d: D form. The star is where a group is joined. ξ: configuration not given here. Phe(3,5-F2) = N[C@@H](Cc1cc(F)cc(F)c1)C(=O)O; Morpholine(3S-CO) = O=C(O)[C@@H]1COCCN1; Pro(4R-Me) = C[C@H]1CN[C@H](C(=O)O)C1; NH(3,4-Me2-phenyl) = Cc1ccc(N*)cc1C; NMeaThr = CN[C@H](C(=O)O)[C@H](C)O; Hyp = O=C(O)[C@@H]1C[C@@H](O)CN1; NH(4-Et-phenyl) = CCc1ccc(N*)cc1; Heptenoyl(2E) = CCCC/C=C/C(=O)*; NH(4-Me-phenyl) = Cc1ccc(N*)cc1; ξNMeThr = CNC(C(=O)O)[C@@H](C)O; aThr = C[C@H](O)[C@H](N)C(=O)O; Pip = O=C(O)[C@@H]1CCCCN1; X4 = c1cc2c(cc1N*)CCC2; X8 = c1cc2c(cc1N*)CCO2; X6 = Cc1cc(C)cc(N*)c1; CO = O=C([*:1])[*:2]; X7 = CC/C=C/C(=O)*

Broadly, the IC50 is the concentration needed to halve the response being measured. Regarding `Cc1ccc(NC(=O)N[C@@H](Cc2cc(F)cc(F)c2)C(=O)N[C@@H]2C(=O)N3CCC[C@H]3C(=O)N(C)[C@@H]([C@H](C)O)C(=O)N[C@@H](C)C(=O)N3C[C@H](C)C[C@H]3C(=O)O[C@H]2C)cc1` [Compound 208, (S)-3-(3,5-difluorophenyl)-N-((2R,6S,9S,11aS,17S,18S,20aS)-9-((S)-1-hydroxyethyl)-2,6,10,18-tetramethyl-5,8,11,16,20-pentaoxohexadecahydro-1H,5H,16H-dipyrrolo[2,1-c:2′,1′-l][1]oxa[4,7,10,13]tetraazacyclohexadecin-17-yl)-2-(3-(p-tolyl)ureido)propanamide] ({NH(4-Me-phenyl)-CO}-[Phe(3,5-F2)][aThr]P[NMeaThr]A[Pro(4R-Me)]; ester 2-C), the IC50 at 72 h in data set [1] (setting [6]) amounted to 46.1 ± 5.5 µM. Besides, the MIC came out at 0.05 µM (≈ 0.0406 µg/mL) in data set [2] (setting [7]), 0.05 µM (≈ 0.0406 µg/mL) in data set [3] and 0.1 µM (≈ 0.0812 µg/mL) in data set [4] (setting [8]).
As for `CCc1ccc(NC(=O)N[C@@H](Cc2cc(F)cc(F)c2)C(=O)N[C@@H]2C(=O)N3C[C@H](O)C[C@H]3C(=O)N3CCCC[C@H]3C(=O)N[C@@H](C)C(=O)N3C[C@H](C)C[C@H]3C(=O)O[C@H]2C)cc1` [Compound 211, (S)-3-(3,5-difluorophenyl)-2-(3-(4-ethylphenyl)ureido)-N-((2R,6S,8aS,14aS,16R,20S,21S,23aS)-16-hydroxy-2,6,21-trimethyl-5,8,14,19,23-pentaoxooctadecahydro-1H,5H,14H,19H-pyrido[2,1-i]dipyrrolo[2,1-c:2′,1′-l][1]oxa[4,7,10,13]tetraazacyclohexadecin-20-yl)propanamide] ({NH(4-Et-phenyl)-CO}-[Phe(3,5-F2)][aThr][Hyp][Pip]A[Pro(4R-Me)]; ester 2-C), the MIC was 0.8 µM (≈ 0.67 µg/mL) in data set [2] (Bacillus subtilis, ATCC23857; read-out: Minimal Inhibitory Concentrations B. subtilis ATCC 23857); 0.04 µM (≈ 0.0335 µg/mL) in data set [3]; 0.02 µM (≈ 0.0168 µg/mL) in data set [5] (setting [9]); under 0.2 µM in data set [4] (Streptococcus pyogenes, ATCC700294; read-out: Minimal Inhibitory Concentrations S. pyogenes ATCC 700294).
Take `Cc1ccc(NC(=O)N[C@@H](Cc2cc(F)cc(F)c2)C(=O)N[C@@H]2C(=O)N3C[C@H](O)C[C@H]3C(=O)N3CCCC[C@H]3C(=O)N[C@@H](C)C(=O)N3C[C@H](C)C[C@H]3C(=O)O[C@H]2C)cc1C` [Compound 212, (S)-3-(3,5-difluorophenyl)-2-(3-(3,4-dimethylphenyl)ureido)-N-((2R,6S,8aS,14aS,16R,20S,21S,23aS)-16-hydroxy-2,6,21-trimethyl-5,8,14,19,23-pentaoxooctadecahydro-1H,5H,14H,19H-pyrido[2,1-i]dipyrrolo[2,1-c:2′,1′-l][1]oxa[4,7,10,13]tetraazacyclohexadecin-20-yl)propanamide] ({NH(3,4-Me2-phenyl)-CO}-[Phe(3,5-F2)][aThr][Hyp][Pip]A[Pro(4R-Me)]; ester 2-C): the MIC is under 0.2 µM in data set [2] (setting [7]), 0.005 µM (≈ 0.00419 µg/mL) in data set [3], 0.002 µM (≈ 0.00168 µg/mL) in data set [5] (setting [10]) and under 0.2 µM in data set [4] (setting [8]).
Turning to `Cc1ccc(NC(=O)N[C@@H](Cc2cc(F)cc(F)c2)C(=O)N[C@@H]2C(=O)N3C[C@H](O)C[C@H]3C(=O)N3CCOC[C@H]3C(=O)N[C@@H](C)C(=O)N3C[C@H](C)C[C@H]3C(=O)O[C@H]2C)cc1C` [Compound 215, (S)-3-(3,5-difluorophenyl)-2-(3-(3,4-dimethylphenyl)ureido)-N-((6aS,8R,12S,13S,15aS,17R,21S,23aS)-8-hydroxy-13,17,21-trimethyl-6,11,15,20,23-pentaoxooctadecahydro-6H,11H,15H-[1,4]oxazino[3,4-i]dipyrrolo[2,1-c:2′,1′-l][1]oxa[4,7,10,13]tetraazacyclohexadecin-12-yl)propanamide] ({NH(3,4-Me2-phenyl)-CO}-[Phe(3,5-F2)][aThr][Hyp][Morpholine(3S-CO)]A[Pro(4R-Me)]; ester 2-C), the MIC was 3.1 µM (≈ 2.6 µg/mL) in data set [2] (setting [7]), 0.4 µM (≈ 0.336 µg/mL) in data set [3], 0.8 µM (≈ 0.672 µg/mL) in data set [5] (setting [10]) and under 0.2 µM in data set [4] (setting [8]).
For `CC/C=C/C(=O)N[C@@H](Cc1cc(F)cc(F)c1)C(=O)N[C@@H]1C(=O)N2C[C@H](O)C[C@H]2C(=O)N2CCCC[C@H]2C(=O)N[C@@H](C)C(=O)N2C[C@H](C)C[C@H]2C(=O)O[C@H]1C` [Compound 300] (X7-[Phe(3,5-F2)][aThr][Hyp][Pip]A[Pro(4R-Me)]; ester 2-C), the half-inhibitory concentration (IC50) at 72 h in data set [1] (setting [6]) was over 100 µM. Further, the MIC in data set [3] was found to be 1.9 µM (≈ 1.47 µg/mL); in data set [5] (setting [10]) it was 2.5 µM (≈ 1.93 µg/mL).
Take `CCCC/C=C/C(=O)N[C@@H](Cc1cc(F)cc(F)c1)C(=O)N[C@@H]1C(=O)N2C[C@H](O)C[C@H]2C(=O)N2CCCC[C@H]2C(=O)N[C@@H](C)C(=O)N2C[C@H](C)C[C@H]2C(=O)O[C@H]1C` [Compound 301, (E)-N—((S)-3-(3,5-difluorophenyl)-1-(((2R,6S,8aS,14aS,16R,20S,21S,23aS)-16-hydroxy-2,6,21-trimethyl-5,8,14,19,23-pentaoxooctadecahydro-1H,5H,14H,19H-pyrido[2,1-i]dipyrrolo[2,1-c:2′,1′-l][1]oxa[4,7,10,13]tetraazacyclohexadecin-20-yl)amino)-1-oxopropan-2-yl)hept-2-enamide] ({Heptenoyl(2E)}-[Phe(3,5-F2)][aThr][Hyp][Pip]A[Pro(4R-Me)]; ester 2-C): the IC50 at 72 h in data set [1] (setting [6]) was found to be 61.1 ± 1.7 µM. Further, the MIC in data set [3] and in data set [5] (setting [10]) was 0.079 µM (≈ 0.0633 µg/mL) throughout.
Consider `C[C@@H]1C[C@H]2C(=O)O[C@@H](C)[C@H](NC(=O)[C@H](Cc3cc(F)cc(F)c3)NC(=O)Nc3ccc4c(c3)CCC4)C(=O)N3CCC[C@H]3C(=O)N3CCCC[C@H]3C(=O)N[C@@H](C)C(=O)N2C1` [Compound 302, (S)-3-(3,5-difluorophenyl)-2-(3-(2,3-dihydro-1H-INDEN-5-yl)ureido)-N-((2R,6S,8aS,14aS,20S,21S,23aS)-2,6,21-trimethyl-5,8,14,19,23-pentaoxooctadecahydro-1H,5H,14H,19H-pyrido[2,1-i]dipyrrolo[2,1-c:2′,1′-l][1]oxa[4,7,10,13]tetraazacyclohexadecin-20-yl)propanamide] ({X4-CO}-[Phe(3,5-F2)][aThr]P[Pip]A[Pro(4R-Me)]; ester 2-C), for which the IC50 at 72 h in data set [1] (setting [6]) is 13.2 ± 1.1 µM. Moreover, the MIC came to 0.059 µM (≈ 0.0492 µg/mL) in data set [3] and 0.039 µM (≈ 0.0325 µg/mL) in data set [5] (setting [10]).
As for `Cc1cc(C)cc(NC(=O)N[C@@H](Cc2cc(F)cc(F)c2)C(=O)N[C@@H]2C(=O)N3CCC[C@H]3C(=O)N3CCCC[C@H]3C(=O)N[C@@H](C)C(=O)N3C[C@H](C)C[C@H]3C(=O)O[C@H]2C)c1` [Compound 304, (S)-3-(3,5-difluorophenyl)-2-(3-(3,5-dimethylphenyl)ureido)-N-((2R,6S,8aS,14aS,20S,21S,23aS)-2,6,21-trimethyl-5,8,14,19,23-pentaoxooctadecahydro-1H,5H,14H,19H-pyrido[2,1-i]dipyrrolo[2,1-c:2′,1′-l][1]oxa[4,7,10,13]tetraazacyclo-hexadecin-20-yl)propanamide] ({X6-CO}-[Phe(3,5-F2)][aThr]P[Pip]A[Pro(4R-Me)]; ester 2-C), the IC50 at 72 h in data set [1] was 21.3 ± 1.6 µM. In addition, the MIC in data set [3] worked out at 0.079 µM (≈ 0.0649 µg/mL); in data set [5] (setting [9]), 0.059 µM (≈ 0.0485 µg/mL).
In the case of `C[C@@H]1C[C@H]2C(=O)O[C@@H](C)[C@H](NC(=O)[C@H](Cc3cc(F)cc(F)c3)NC(=O)Nc3ccc4c(c3)CCO4)C(=O)N3CCC[C@H]3C(=O)N3CCCC[C@H]3C(=O)N[C@@H](C)C(=O)N2C1` [Compound 305, (S)-3-(3,5-difluorophenyl)-2-(3-(2,3-dihydrobenzofuran-5-yl)ureido)-N-((2R,6S,8aS,14aS,20S,21S,23aS)-2,6,21-trimethyl-5,8,14,19,23-pentaoxooctadecahydro-1H,5H,14H,19H-pyrido[2,1-i]dipyrrolo[2,1-c:2′,1′-l][1]oxa[4,7,10,13]tetraazacyclo-hexadecin-20-yl)propanamide] ({X8-CO}-[Phe(3,5-F2)][aThr]P[Pip]A[Pro(4R-Me)]; ester 2-C), in data set [1] (setting [6]), the IC50 at 72 h stood at 39 ± 2.7 µM. Moreover, the MIC in data set [3] and in data set [5] (setting [10]) was 0.24 µM (≈ 0.201 µg/mL) each time.
Take `Cc1ccc(NC(=O)N[C@@H](Cc2cc(F)cc(F)c2)C(=O)N[C@H]2COC(=O)[C@@H]3C[C@@H](C)CN3C(=O)[C@H](C)NC(=O)C([C@@H](C)O)N(C)C(=O)[C@@H]3CCCN3C2=O)cc1` (stereo partly drawn) [Compound 322, (S)-3-(3,5-difluorophenyl)-N-((2R,6S,9R,11aS,17S,20aS)-9-((R)-1-hydroxyethyl)-2,6,10-trimethyl-5,8,11,16,20-pentaoxohexadecahydro-1H,5H,16H-dipyrrolo[2,1-c:2′,1′-l][1]oxa[4,7,10,13]tetraazacyclohexadecin-17-yl)-2-(3-(p-tolyl)ureido)propanamide] ({NH(4-Me-phenyl)-CO}-[Phe(3,5-F2)]SP[ξNMeThr]A[Pro(4R-Me)]; ester 2-C): in data set [1] (setting [6]), the IC50 at 72 h was 47.8 ± 3.2 µM. Moreover, the MIC in data set [2] (setting [7]) amounted to 0.078 µM (≈ 0.0622 µg/mL); in data set [5] (setting [10]) it was 0.313 µM (≈ 0.25 µg/mL); in data set [4] (setting [8]), 0.625 µM (≈ 0.499 µg/mL).

The values above are taken from US10457707B2, “Substituted urea depsipeptide analogs as activators of the CLPP endopeptidase” (priority 2015, dated 2019).
